Data published in US20220106301A1, “ACETAMIDO-PHENYLBENZAMIDE DERIVATIVES AND METHODS OF USING THE SAME” (Athenex, Inc., priority 2020, published 2022).

Each compound was assayed against CYP3A4 (Homo sapiens, UniProt P08684) (assay: Determination of CYP3A4 inhibitory activity (human liver microsome, Luciferin-IPA)). Conditions: CYP3A4 IC50 (nM), 37° C. 11 minutes.
Method: The standard final Compound concentrations were 37, 111, 333, 1000, and 3000 nM. 12.5 μL of the Compound dilutions were transferred to a white 96-well plate. […] 25 μL of the buffer was added to each well. The plates were incubated at 37° C. for 11 minutes. 50 μL of luciferin detection reagent (Promega V9002) was added and the plates were incubated at room temperature for 5 minutes. The plate was read with a luminometer.
The dose-response curve and IC50 were obtained by fitting data to nonlinear regression model using GraphPad Prism software (v6.0).

CYP3A4, sequence (P08684 whole entry): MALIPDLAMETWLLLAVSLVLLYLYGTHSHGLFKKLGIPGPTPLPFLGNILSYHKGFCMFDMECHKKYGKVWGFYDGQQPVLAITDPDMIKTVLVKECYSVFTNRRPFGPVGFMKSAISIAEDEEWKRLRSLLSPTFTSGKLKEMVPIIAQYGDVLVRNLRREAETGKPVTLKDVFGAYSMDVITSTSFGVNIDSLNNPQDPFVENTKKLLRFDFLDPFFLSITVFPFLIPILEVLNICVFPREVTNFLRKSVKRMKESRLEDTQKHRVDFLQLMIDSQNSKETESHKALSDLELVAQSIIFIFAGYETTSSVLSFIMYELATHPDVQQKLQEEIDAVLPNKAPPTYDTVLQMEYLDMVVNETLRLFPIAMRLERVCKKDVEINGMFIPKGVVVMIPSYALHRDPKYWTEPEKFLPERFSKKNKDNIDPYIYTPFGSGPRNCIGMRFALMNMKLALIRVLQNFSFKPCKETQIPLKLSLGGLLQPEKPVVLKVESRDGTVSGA

Row | IC50 | Compound
1 | > 1000 nM | COc1cc(NC(=O)c2cc(=O)c3ccccc3o2)c(C(=O)Nc2ccc(CCN(C)Cc3ccc4c(c3)OCO4)cc2)cc1OC [Compound 138]
2 | > 1000 nM | COc1cc(NC(=O)c2cc(=O)c3ccccc3o2)c(C(=O)Nc2ccc(CCNCc3ccc4c(cnn4C)c3)cc2)cc1OC [Compound 139]
3 | > 1000 nM | COc1cc(NC(=O)c2cc(=O)c3ccccc3o2)c(C(=O)Nc2ccc(CCN(Cc3ccc4c(cnn4C)c3)Cc3cncs3)cc2)cc1OC [Compound 140]
4 | > 1000 nM | CCN(CCc1ccc(NC(=O)c2cc(OC)c(OC)cc2NC(=O)c2cc(=O)c3ccccc3o2)cc1)Cc1cccc(-c2ccco2)c1 [Compound 141]
5 | > 1000 nM | COc1cc(NC(=O)c2cc(=O)c3ccccc3o2)c(C(=O)Nc2ccc(CCN(Cc3ccc(-n4cncn4)cc3)Cc3ccc4c(cnn4C)c3)cc2)cc1OC [Compound 142]
6 | > 1000 nM | CCN(CCc1ccc(NC(=O)c2cc(OC)c(OC)cc2NC(=O)c2cc(=O)c3ccccc3o2)cc1)Cc1ccc(-c2ccco2)cc1 [Compound 143]
7 | > 1000 nM | CCN(CCc1ccc(NC(=O)c2cc(OC)c(OC)cc2NC(=O)c2cc(=O)c3ccccc3o2)cc1)Cc1ccc(C)c2ncccc12 [Compound 144]
8 | 500 to 1000 nM | COc1cc(NC(=O)c2cnc3ccccc3c2)c(C(=O)Nc2ccc(CCN(Cc3ccc(-n4ccnc4)cc3)Cc3ccc4c(cnn4C)c3)cc2)cc1OC [Compound 145]
9 | 500 to 1000 nM | COc1cc(NC(=O)c2cnc3ccccc3c2)c(C(=O)Nc2ccc(CCN(Cc3cccc(-n4ccnc4)c3)Cc3ccc4c(cnn4C)c3)cc2)cc1OC [Compound 146]
10 | < 100 nM | COc1ccc(CN(CCc2ccc(NC(=O)c3cc(OC)c(OC)cc3NC(=O)c3cc(=O)c4ccccc4o3)cc2)Cc2cncn2C)cc1OC [Compound 147]
11 | > 1000 nM | COc1cc(NC(=O)c2cc(=O)c3ccccc3o2)c(C(=O)Nc2ccc(CCN(C)Cc3ccc(-c4nn[nH]n4)cc3)cc2)cc1OC [Compound 148]
12 | > 1000 nM | COc1cc(NC(=O)c2cc(=O)c3ccccc3o2)c(C(=O)Nc2ccc(CCN(CCN3CCOCC3)Cc3ccc4c(cnn4C)c3)cc2)cc1OC [Compound 149]
13 | > 1000 nM | COc1cc(NC(=O)c2cc(=O)c3ccccc3o2)c(C(=O)Nc2ccc(CCN(C)Cc3ccc4c(c3)CCO4)cc2)cc1OC [Compound 155]
14 | > 1000 nM | COc1cc(NC(=O)c2cc(=O)c3ccccc3o2)c(C(=O)Nc2ccc(CCN(C)Cc3cccc(-c4nc(C)no4)c3)cc2)cc1OC [Compound 157]
15 | > 1000 nM | CCN(CCc1ccc(NC(=O)c2cc(OC)c(OC)cc2NC(=O)c2cc(=O)c3ccccc3o2)cc1)Cc1ccc2c(c1)n(C)c(=O)n2C [Compound 161]
16 | > 1000 nM | CCN(CCc1ccc(NC(=O)c2cc(OC)c(OC)cc2NC(=O)c2cc(=O)c3ccccc3o2)cc1)Cc1ccc2c(c1)CCO2 [Compound 162]
17 | > 1000 nM | COc1cc(NC(=O)c2cc(=O)c3ccccc3o2)c(C(=O)Nc2ccc(CCN(Cc3ccc4c(c3)CCO4)Cc3ccc4c(cnn4C)c3)cc2)cc1OC [Compound 163]
18 | > 1000 nM | CCN(CCc1ccc(NC(=O)c2cc(OC)c(OC)cc2NC(=O)c2cc(=O)c3ccccc3o2)cc1)Cc1ccc2cnn(C)c2c1 [Compound 164]
19 | > 1000 nM | CCN(CCc1ccc(NC(=O)c2cc(OC)c(OC)cc2NC(=O)c2cc(=O)c3ccccc3o2)cc1)Cc1ccc2oncc2c1 [Compound 165]
20 | > 1000 nM | COc1cc(NC(=O)c2cnc3ccccc3n2)c(C(=O)Nc2ccc(CCN(Cc3ccc4c(cnn4C)c3)Cc3ccc4c(cnn4C)c3)cc2)cc1OC [Compound 167]
21 | > 1000 nM | COc1cc(NC(=O)c2cnc3ccccc3n2)c(C(=O)Nc2ccc(CCN(Cc3ccc4cnn(C)c4c3)Cc3ccc4cnn(C)c4c3)cc2)cc1OC [Compound 168]
22 | > 1000 nM | COc1cc(NC(=O)c2cnc3ccccc3n2)c(C(=O)Nc2ccc(CCN(Cc3ccc4c(c3)n(C)c(=O)n4C)Cc3ccc4c(c3)n(C)c(=O)n4C)cc2)cc1OC [Compound 169]
23 | > 1000 nM | COc1cc(NC(=O)c2cc(=O)c3ccccc3o2)c(C(=O)Nc2ccc(CCN(Cc3ccc4cnn(C)c4c3)Cc3ccc4cnn(C)c4c3)cc2)cc1OC [Compound 170]
24 | > 1000 nM | COc1cc(NC(=O)c2cnc3ccccc3n2)c(C(=O)Nc2ccc(CCN(Cc3ccc4c(cnn4C)c3)Cc3ccc4cnn(C)c4c3)cc2)cc1OC [Compound 172]
25 | > 1000 nM | COc1cc(NC(=O)c2cnc3ccccc3n2)c(C(=O)Nc2ccc(CCN(Cc3ccc4c(cnn4C)c3)Cc3ccc(C)c4ncccc34)cc2)cc1OC [Compound 173]
26 | < 100 nM | COc1cc(NC(=O)c2cc(=O)c3ccccc3o2)c(C(=O)Nc2ccc(CCN(Cc3cccc(-n4ccnc4)c3)Cc3ccc4cnn(C)c4c3)cc2)cc1OC [Compound 177]
27 | 250 to 500 nM | COc1cc(NC(=O)c2cnc3ccccc3c2)c(C(=O)Nc2ccc(CCN(Cc3cccc(-n4ccnc4)c3)Cc3ccc4c(c3)c(C)nn4C)cc2)cc1OC [Compound 179]

Row | IC50 | Compound
28 | > 1000 nM | COc1cc(NC(=O)c2cc(=O)c3ccccc3o2)c(C(=O)Nc2ccc(CCN(Cc3ccc4c(c3)c(C)nn4C)Cc3ccc4c(c3)c(C)nn4C)cc2)cc1OC [Compound 180]
29 | > 1000 nM | COc1cc(NC(=O)c2cc(=O)c3ccccc3o2)c(C(=O)Nc2ccc(CCN(Cc3ccc4c(cnn4C)c3)Cc3ccc4c(c3)c(C)nn4C)cc2)cc1OC [Compound 181]
30 | < 100 nM | COc1cc(NC(=O)c2cc(=O)c3ccccc3o2)c(C(=O)Nc2ccc(CCN(Cc3ccncc3)Cc3ccc4cnn(C)c4c3)cc2)cc1OC [Compound 182]
31 | > 1000 nM | CCN(CCc1ccc(NC(=O)c2cc(OC)c(OC)cc2NC(=O)c2cc(=O)c3ccccc3o2)cc1)Cc1ccc2[nH]ncc2c1 [Compound 184]
32 | > 1000 nM | CCN(CCc1ccc(NC(=O)c2cc(OC)c(OC)cc2NC(=O)c2cc(=O)c3ccccc3o2)cc1)Cc1ccc2cn[nH]c2c1 [Compound 185]
33 | 100 to 250 nM | COc1cc(NC(=O)c2cc(=O)c3ccccc3o2)c(C(=O)Nc2ccc(CCN(Cc3ccc(-n4ccnc4)cc3)Cc3ccc4cnn(C)c4c3)cc2)cc1OC [Compound 186]
34 | > 1000 nM | COc1cc(NC(=O)c2cc(=O)c3ccccc3o2)c(C(=O)Nc2ccc(CCN(Cc3ccc(-c4ccncc4)cc3)Cc3ccc4cnn(C)c4c3)cc2)cc1OC [Compound 187]
35 | > 1000 nM | COc1cc(NC(=O)c2cc(=O)c3ccccc3o2)c(C(=O)Nc2ccc(CCN(Cc3ccc(-c4ccncc4)cc3)Cc3ccc4c(cnn4C)c3)cc2)cc1OC [Compound 188]
36 | > 1000 nM | COc1cc(NC(=O)c2cc(=O)c3ccccc3o2)c(C(=O)Nc2ccc(CCN(Cc3ccc(-c4cccnc4)cc3)Cc3ccc4c(cnn4C)c3)cc2)cc1OC [Compound 189]
37 | > 1000 nM | COc1cc(NC(=O)c2cc(=O)c3ccccc3o2)c(C(=O)Nc2ccc(CCN(C)Cc3ccc4c(ccn4C)c3)cc2)cc1OC [Compound 190]
38 | > 1000 nM | CCn1ncc2cc(CN(C)CCc3ccc(NC(=O)c4cc(OC)c(OC)cc4NC(=O)c4cc(=O)c5ccccc5o4)cc3)ccc21 [Compound 191]
39 | > 1000 nM | CCN(CCc1ccc(NC(=O)c2cc(OC)c(OC)cc2NC(=O)c2cc(=O)c3ccccc3o2)cc1)Cc1ccc2c(cnn2CC)c1 [Compound 192]
40 | > 1000 nM | COc1cc(NC(=O)c2cc(=O)c3cc(C)cc(C)c3o2)c(C(=O)Nc2ccc(CCN(Cc3cccc(-n4ccnc4)c3)Cc3ccc4c(cnn4C)c3)cc2)cc1OC [Compound 197]
41 | 500 to 1000 nM | COc1cc(NC(=O)C2CC(=O)c3cc(C)ccc3O2)c(C(=O)Nc2ccc(CCN(Cc3cccc(-n4ccnc4)c3)Cc3ccc4c(cnn4C)c3)cc2)cc1OC (stereo not drawn) [Compound 199]
42 | > 1000 nM | COc1cc(NC(=O)c2cc(=O)c3ccccc3o2)c(C(=O)Nc2ccc(CCN(Cc3cncs3)Cc3cccc4cnn(C)c34)cc2)cc1OC [Compound 200]
43 | 500 to 1000 nM | COc1cc(NC(=O)c2cc(=O)c3ccccc3o2)c(C(=O)Nc2ccc(CCN(Cc3cccnc3)Cc3cccc4cnn(C)c34)cc2)cc1OC [Compound 201]
44 | 500 to 1000 nM | COc1cc(NC(=O)c2cc(=O)c3ccccc3o2)c(C(=O)Nc2ccc(CCN(Cc3cccc(-c4nc(C)no4)c3)Cc3cncs3)cc2)cc1OC [Compound 202]
45 | 250 to 500 nM | COc1cc(NC(=O)c2cc(=O)c3ccccc3o2)c(C(=O)Nc2ccc(CCN(Cc3cccnc3)Cc3cccc(-c4nc(C)no4)c3)cc2)cc1OC [Compound 203]
46 | 250 to 500 nM | COc1cc(NC(=O)c2cc(=O)c3ccccc3o2)c(C(=O)Nc2ccc(CCN(Cc3cccc(-n4ccnc4)c3)Cc3ccc4nn(C)cc4c3)cc2)cc1OC [Compound 204]
47 | 500 to 1000 nM | CCn1ncc2cc(CN(CCc3ccc(NC(=O)c4cc(OC)c(OC)cc4NC(=O)C4CC(=O)c5ccccc5O4)cc3)Cc3cccc(-n4ccnc4)c3)ccc21 (stereo not drawn) [Compound 205]
48 | > 1000 nM | COc1cc(NC(=O)c2cc(=O)c3ccccc3o2)c(C(=O)Nc2ccc(CCN(Cc3cccc(-n4ccnc4)c3)Cc3ccc(C)c4ncccc34)cc2)cc1OC [Compound 206]
49 | > 1000 nM | CCn1c2ccccc2c2cc(CN(CCc3ccc(NC(=O)c4cc(OC)c(OC)cc4NC(=O)c4cc(=O)c5ccccc5o4)cc3)Cc3cccc(-n4ccnc4)c3)ccc21 [Compound 212]
50 | < 100 nM | COc1cc(NC(=O)C2CC(=O)c3ccccc3O2)c(C(=O)Nc2ccc(CCN(Cc3cccc(-n4ccnc4)c3)Cc3cc(OC)c(OC)c(OC)c3)cc2)cc1OC (stereo not drawn) [Compound 213]
51 | > 1000 nM | COc1cc(NC(=O)c2cc(=O)c3ccccc3o2)c(C(=O)Nc2ccc(CCNCc3cccnc3)cc2)cc1OC [Compound 214]
52 | > 1000 nM | COc1cc(NC(=O)c2cc(=O)c3ccccc3o2)c(C(=O)Nc2ccc(CCN)cc2)cc1OC [Compound 215]
53 | 100 to 250 nM | COc1cc(NC(=O)c2cc(=O)c3ccccc3o2)c(C(=O)Nc2ccc(CCN(Cc3cccnc3)Cc3cccc(-n4ccnc4)c3)cc2)cc1OC [Compound 216]
54 | 100 to 250 nM | COc1cncc(CN(CCc2ccc(NC(=O)c3cc(OC)c(OC)cc3NC(=O)c3cc(=O)c4ccccc4o3)cc2)Cc2cccc(-n3ccnc3)c2)c1 [Compound 217]
